US20170326125A1, “MULTISUBSTITUTED AROMATIC COMPOUNDS AS INHIBITORS OF THROMBIN” (VERSEON CORPORATION, priority 2016, published 2017)

Molecular target: T1, Human thrombin (Homo sapiens, UniProt P00734)
T1 construct: purchased Haematologic Technologies Inc
Assay: Inhibition of the protease activity of thrombin (chromogenic substrate S-2238)
Format: biochemical
Conditions: inhibition of the protease activity of thrombin; class symbols a/b/c
Description: Compounds described herein can be assayed, by a variety of methods known in the art and described herein, for inhibition of biological activity, e.g., protease activity, of a variety of proteins, e.g., thrombin.
The thrombin activity reported herein (e.g., Table A) was obtained as follows. Human thrombin was obtained from Haematologic Technologies Inc. The chromogenic
Thrombin was assayed in buffer containing 0.05 M Tris (pH 7.4), 0.015 M NaCl and 0.01% PEG-8000. The final concentration of enzyme used was 3 nM thrombin. […] All assays were performed in 96-well microtiter plates at room temperature (RT). […] Inhibitor IC50 values were determined by adding test compound as ten point, three-fold serial dilutions in buffer solution, as known in the art. The plate was read at 10 minutes after substrate addition. The IC50 was calculated by plotting the percent (%) inhibition against compound concentration and fitting the data to a constrained four parameter sigmoidal curve, as known in the art.

| Structure (SMILES) | IC50 [nM] |
| --- | --- |
| CCC(=O)n1nc(-c2cccs2)nc1NCc1ccc(F)cc1 [Cmpd 83, 1-(5-[(4-fluorophenyl)methyl]amino-3-(thiophen-2-yl)-1H-1,2,4-triazol-1-yl)propan-1-one] | 100 to 1000 |
| CCC(=O)n1nc(-c2ccccc2)c(C)c1NCc1ccc(F)cc1 [Cmpd 85, 1-(5-[(4-fluorophenyl)methyl]amino-4-methyl-3-phenyl-1H-pyrazol-1-yl)propan-1-one] | > 1000 |
| CCC(=O)n1nc(-c2cccnc2)nc1SCc1ccc(F)cc1 [Cmpd 86, 1-(5-[(4-fluorophenyl)methyl]sulfanyl-3-(pyridin-3-yl)-1H-1,2,4-triazol-1-yl)propan-1-one] | < 100 |
| COc1ccc(CNc2nc(-c3ccccn3)nn2C(=O)Cc2ccccc2)cc1 [Cmpd 89, 1-(5-[(4-methoxyphenyl)methyl]amino-3-(pyridin-2-yl)-1H-1,2,4-triazol-1-yl)-2-phenylethan-1-one] | < 100 |
| CCC(=O)n1nc(-c2ccccn2)nc1NCc1ccc(OC)cc1 [Cmpd 93, 1-(5-[(4-methoxyphenyl)methyl]amino-3-(pyridin-2-yl)-1H-1,2,4-triazol-1-yl)propan-1-one] | < 100 |
| COc1ccc(CNc2nc(-c3ccncc3)nn2C(=O)C(C)C)cc1 [Cmpd 95, 1-(5-[(4-methoxyphenyl)methyl]amino-3-(pyridin-4-yl)-1H-1,2,4-triazol-1-yl)-2-methylpropan-1-one] | < 100 |
| COc1ccc(CNc2nc(-c3ccncc3)nn2C(=O)Cc2ccccc2)cc1 [Cmpd 96, 1-(5-[(4-methoxyphenyl)methyl]amino-3-(pyridin-4-yl)-1H-1,2,4-triazol-1-yl)-2-phenylethan-1-one] | < 100 |
| COc1ccc(CNc2nc(-c3ccncc3)nn2C(=O)CCc2ccccc2)cc1 [Cmpd 98, 1-(5-[(4-methoxyphenyl)methyl]amino-3-(pyridin-4-yl)-1H-1,2,4-triazol-1-yl)-3-phenylpropan-1-one] | > 1000 |
| O=C(c1cccc2c1OC(F)(F)O2)n1nc(-c2ccccc2)nc1NCc1ccc(F)cc1 [Cmpd 101, 1-[(2,2-difluoro-2H-1,3-benzodioxol-4-yl)carbonyl]-N-[(4-fluorophenyl)methyl]-3-phenyl-1H-1,2,4-triazol-5-amine] | > 1000 |
| O=C(c1cccc2c1OCCO2)n1nc(-c2ccccc2)nc1NCc1ccc(F)cc1 [Cmpd 102, 1-[(2,3-dihydro-1,4-benzodioxin-5-yl)carbonyl]-N-[(4-fluorophenyl)methyl]-3-phenyl-1H-1,2,4-triazol-5-amine] | < 100 |
| COc1ccc(C(=O)n2nc(-c3ccccc3F)cc2NCc2ccccc2)c(N)c1 [Cmpd 103, 1-[(2-amino-4-methoxyphenyl)carbonyl]-N-benzyl-3-(2-fluorophenyl)-1H-pyrazol-5-amine] | > 1000 |
| Cc1ccc(C(=O)n2nc(-c3ccccn3)cc2NCc2ccccc2)c(N)c1 [Cmpd 108, 1-[(2-amino-4-methylphenyl)carbonyl]-N-benzyl-3-(pyridin-2-yl)-1H-pyrazol-5-amine] | 100 to 1000 |
| CSc1nc(-c2cccs2)nn1C(=O)c1ccccc1Cl [Cmpd 110, 1-[(2-chlorophenyl)carbonyl]-5-(methylsulfanyl)-3-(thiophen-2-yl)-1H-1,2,4-triazole] | < 100 |

Second part, the molecule after the results:

| IC50 [nM] | Structure (SMILES) |
| --- | --- |
| > 1000 | CCC(=O)n1nc(-c2ccccc2)cc1NCc1ccc(F)cc1 [Cmpd 84, 1-(5-[(4-fluorophenyl)methyl]amino-3-phenyl-1H-pyrazol-1-yl)propan-1-one] |
| < 100 | COc1ccc(CNc2nc(-c3ccccn3)nn2C(=O)C(C)C)cc1 [Cmpd 88, 1-(5-[(4-methoxyphenyl)methyl]amino-3-(pyridin-2-yl)-1H-1,2,4-triazol-1-yl)-2-methylpropan-1-one] |
| < 100 | COc1ccc(CNc2nc(-c3ccccn3)nn2C(=O)CC(C)C)cc1 [Cmpd 90, 1-(5-[(4-methoxyphenyl)methyl]amino-3-(pyridin-2-yl)-1H-1,2,4-triazol-1-yl)-3-methylbutan-1-one] |
| 100 to 1000 | COc1ccc(CNc2nc(-c3ccccn3)nn2C(=O)CCc2ccccc2)cc1 [Cmpd 91, 1-(5-[(4-methoxyphenyl)methyl]amino-3-(pyridin-2-yl)-1H-1,2,4-triazol-1-yl)-3-phenylpropan-1-one] |
| < 100 | CCCC(=O)n1nc(-c2ccccn2)nc1NCc1ccc(OC)cc1 [Cmpd 92, 1-(5-[(4-methoxyphenyl)methyl]amino-3-(pyridin-2-yl)-1H-1,2,4-triazol-1-yl)butan-1-one] |
| < 100 | COc1ccc(CNc2nc(-c3cccnc3)nn2C(=O)C(C)(C)C)cc1 [Cmpd 94, 1-(5-[(4-methoxyphenyl)methyl]amino-3-(pyridin-3-yl)-1H-1,2,4-triazol-1-yl)-2,2-dimethylpropan-1-one] |
| < 100 | COc1ccc(CNc2nc(-c3ccncc3)nn2C(=O)CC(C)C)cc1 [Cmpd 97, 1-(5-[(4-methoxyphenyl)methyl]amino-3-(pyridin-4-yl)-1H-1,2,4-triazol-1-yl)-3-methylbutan-1-one] |
| < 100 | CCCC(=O)n1nc(-c2ccncc2)nc1NCc1ccc(OC)cc1 [Cmpd 99, 1-(5-[(4-methoxyphenyl)methyl]amino-3-(pyridin-4-yl)-1H-1,2,4-triazol-1-yl)butan-1-one] |
| 100 to 1000 | CCC(=O)n1nc(-c2ccncc2)nc1NCc1ccc(OC)cc1 [Cmpd 100, 1-(5-[(4-methoxyphenyl)methyl]amino-3-(pyridin-4-yl)-1H-1,2,4-triazol-1-yl)propan-1-one] |
| < 100 | COc1ccc(C(=O)n2nc(-c3ccccn3)nc2NCc2ccccc2)c(N)c1 [Cmpd 104, 1-[(2-amino-4-methoxyphenyl)carbonyl]-N-benzyl-3-(pyridin-2-yl)-1H-1,2,4-triazol-5-amine] |
| 100 to 1000 | COc1ccc(C(=O)n2nc(-c3ccccn3)cc2NCc2ccccc2)c(N)c1 [Cmpd 105, 1-[(2-amino-4-methoxyphenyl)carbonyl]-N-benzyl-3-(pyridin-2-yl)-1H-pyrazol-5-amine] |
| > 1000 | Cc1ccc(C(=O)n2nc(-c3ccccc3F)cc2NCc2ccccc2)c(N)c1 [Cmpd 106, 1-[(2-amino-4-methylphenyl)carbonyl]-N-benzyl-3-(2-fluorophenyl)-1H-pyrazol-5-amine] |
| < 100 | Cc1ccc(C(=O)n2nc(-c3ccccn3)nc2NCc2ccccc2)c(N)c1 [Cmpd 107, 1-[(2-amino-4-methylphenyl)carbonyl]-N-benzyl-3-(pyridin-2-yl)-1H-1,2,4-triazol-5-amine] |
| < 100 | Nc1ccccc1C(=O)n1nc(-c2ccccn2)nc1NCc1ccccc1 [Cmpd 109, 1-[(2-aminophenyl)carbonyl]-N-benzyl-3-(pyridin-2-yl)-1H-1,2,4-triazol-5-amine] |
| < 100 | O=C(c1ccccc1Cl)n1nc(-c2ccccn2)nc1NCc1ccc(F)cc1 [Cmpd 111, 1-[(2-chlorophenyl)carbonyl]-N-[(4-fluorophenyl)methyl]-3-(pyridin-2-yl)-1H-1,2,4-triazol-5-amine] |
| < 100 | O=C(c1ccccc1Cl)n1nc(-c2ccncc2)nc1NCc1ccc(F)cc1 [Cmpd 112, 1-[(2-chlorophenyl)carbonyl]-N-[(4-fluorophenyl)methyl]-3-(pyridin-4-yl)-1H-1,2,4-triazol-5-amine] |
| < 100 | O=C(c1ccccc1Cl)n1nc(-c2cccs2)nc1NCc1ccc(F)cc1 [Cmpd 113, 1-[(2-chlorophenyl)carbonyl]-N-[(4-fluorophenyl)methyl]-3-(thiophen-2-yl)-1H-1,2,4-triazol-5-amine] |
